Results: patent publication US11312715B2, “Fused ring derivative as A2A receptor inhibitor” (CSTONE PHARMACEUTICALS (SUZHOU) CO., LTD., priority 2017, dated 2022)

What was measured:
[1] = molecular target: T1, Human Adenosine A2a Receptor (Homo sapiens, UniProt P29274); test: Human adenosine A2a receptor calcium flow detection experiment (FLIPR, Fluo-4, NECA agonist); assay type: cell-based; conditions: A2a stable CHO cell line, antagonist mode vs NECA at EC80
T1 construct: host or cells: CHO
Method: Human Adenosine A2a Receptor Calcium Flow Detection Experiment
A2a stable cell line was constructed by Shanghai Wuxi Apptec, and the host cell was CHO.
Fluo-4 Direct kit (Invitrogen, article number: F10471). After the fluorescence detection reagent (specifically binding to calcium ions and causing an increase of fluorescence signal) in the kit was incubated with the cells for an appropriate time, the compound was added to stimulate the cells and induced changes in intracellular calcium flow, thus causing the changes in fluorescence signal, which can reflect the intensity of the agonistic or inhibiting activity of the compounds.
F12+10% fetal bovine serum+geneticin 300 μg/mL+blasticidin 2 μg/mL
Hanks balanced salt buffer (Invitrogen)+20 mM HEPES, which was prepared before each use
The compounds to be tested were dissolved in DMSO to prepare a 10 mM mother liquor. The test compound was diluted to 0.2 mM with DMSO, and the reference compound CGS-15943 was diluted to 0.015 mM with DMSO. Then a 10-point 3-fold serial dilution was performed with ECHO, then 900 nL of the dilutions was transferred to a compound plate (Greiner-781280), and 30 μL of the compound dilution buffer was added. The final initial concentration of the compounds to be tested was 1 μM and that of CGS-15943 was 0.075 μM.
Frozen A2A cells were suspended to 1×10^6 cells/mL with the culture medium after resuscitation, seeded with 20 μL/well into a 384-well polylysine coated cell plate (Greiner-781946), then incubated under 5% CO2 at 37° C. overnight.
The cell plate prepared the day before was taken out from the incubator, 20 μL 2×Fluo-4 Direct™ buffer was added into each cell, then incubated under 5% CO2 at 37° C. in an incubator for 50 minutes, and was allowed to stand at room temperature for 10 minutes.
Dilution of the agonist NECA: NECA with an initial concentration of 0.15 mM was 3-fold serially diluted with Echo to prepare 10 dilutions, and then 900 nL of the dilutions was transferred to the corresponding compound plate; then 30 μL of the compound dilution buffer was added into the corresponding compound plate. The final initial concentration was 750 nM.
FLIPR instrument and software were performed according to the set program, 10 μL of the compound dilution buffer was added into the cell plate, and the fluorescence signal was read. 10 μL of the agonist reference compound with a predetermined concentration was added to the cell plate and the fluorescence signal was read. After reading, the data were exported by “Max-Min” and “Read 90 to Maximum allowed” methods in the software, the EC80 on A2A cell line was calculated, and 6×EC80 concentration of agonist was prepared. The agonist reference compound with a concentration of 6×EC80 was prepared with buffer salt solution, and 30 μL/well was aliquoted into the corresponding compound plate for later use.
FLIPR instrument and software were performed according to the set program, 10 μL of test compounds and reference compound with a predetermined concentration was added into the cell plate, and the fluorescence signal was read. 10 μL of the agonist reference compound with a concentration of 6×EC80 was added into the cell plate and the fluorescence signal was read. For the agonist detection of the compounds, the data were exported by “Max-Min” and “Read 1 to 90” methods in the software. For the antagonist detection of the compounds, the data were exported by “Max-Min” and “Read 90 to Maximum allowed” methods in the software. The data were analyzed by GraphPad Prism 5.0 and the IC50 value of the test compounds was calculated.

[2] = Pharmacokinetic evaluation after single intravenous injection and single oral administration in mice; assay type: in vivo; conditions: mouse, female Balb/C mice, plasma, single IV / single PO study; for bioavailability: read-out: Bioavailability F; for clearance: read-out: Clearance rate; for AUC: read-out: Concentration integral AUC; for half-life: read-out: Half-life T1/2 (converted)
Method: Experimental materials: Balb/C mice (female, 15-30 g, 7-9 weeks old, Shanghai Linchang) were used.
Experimental method: The pharmacokinetic characteristics of the compound after intravenous injection and oral administration were tested on rodents by standard scheme, in the experiment, the candidate compounds were prepared into clear solutions and administrated to mice by single intravenous injection and single oral administration. Intravenous injection (IV) menstruum was a mixed solvent of 5% DMSO/5% polyethylene glycol hydroxystearate/90% water, and oral (PO) menstruum was a mixed solvent of 1% Tween 80, 9% PEG400 and 90% water (pH=3). The whole blood sample within 48 hours was collected, centrifuged at 3000 g at 4° C. for 15 minutes, and the supernatant was separated to obtain the plasma sample. An acetonitrile solution containing internal standard with a volume of 20 times that of the plasma sample was added to precipitate protein, the supernatant was centrifuged and an equal volume of water was added, then the supernatant was taken for injection. The blood drug concentration was quantitatively analyzed by LC-MS/MS analysis method, and the pharmacokinetic parameters such as peak concentration, peak time, clearance rate, half-life, area under the drug concentration-time curve, bioavailability, etc. were calculated.

[3] = tested on: mouse colon cancer CT26 cells; test: In vivo pharmacodynamic test, CT26 subcutaneous tumor model, alone or combined with CS1003; set-up: species or system BALB/C mice; conditions: CS1003 1 mg/kg intraperitoneal, Day 7, 10, 13, 16
Method: Experimental materials: BALB/C mice (female); mouse colon cancer CT26 cells (Typical Culture Preservation Commission cell bank, Chinese Academy of Sciences) were cultured in vitro in monolayer with RPMI-1640 medium containing 10% fetal bovine serum in a 37° C., 5% CO2 incubator. Trypsin-EDTA was used for routine digestion and passage. When the cells were in exponential growth phase and the saturation was 80%-90%, the cells were collected and counted.
Compound preparation: Embodiment 19 was weighted and added into the menstruum (10% PEG400+90% (10% Cremophor aqueous solution)) to prepare samples of 2.5 mg/mL, 5 mg/mL and 10 mg/mL respectively. 72 μL CS1003 (PD-1 antibody) solution (25 mg/mL) was taken and 1.728 mL Dulbecco's phosphate buffer (DPBS) was added to prepare a 1 mg/mL solution, then 16.2 mL DPBS was added to prepare a 0.1 mg/mL clear solution.
Experimental operation: the cells were resuspended in Dulbecco's phosphate buffer at a density of 3×10^6 cells/mL. 0.1 mL DPBS (containing 3×10^5 CT26 cells) was subcutaneously inoculated on the right back of each mouse. On the day of inoculation, the mice were randomly divided into groups with 9 mice each group according to the weight of the mice, then administration was started and continued for 20 days. During the whole experiment, the animals were weighed and the animal's health was monitored every day, in case of any special situation, the person in charge of the relevant project would be informed in time and the corresponding records would be made. Tumor diameter was measured twice a week with a vernier caliper. The calculation formula of the tumor volume was: V=0.5×a×b^2, wherein a and b represent the long and short diameters of the tumor respectively.
The antitumor effect of the compounds was evaluated by GI (%) or relative tumor proliferation rate T/C (%). Relative tumor proliferation rate T/C (%)=Vt/VC×100% (Vt: average tumor volume of treatment group; Vc: average tumor volume of negative control group). Vt and VC were the data on the same day. GI (%), tumor inhibition rate. GI (%)=1−Vt/VC×100%.
Statistical analysis was conducted using SPSS software based on the relative tumor volume and tumor weight at the end of the experiment. […] P<0.05 was considered as significant difference.

T1 sequence (P29274 whole entry): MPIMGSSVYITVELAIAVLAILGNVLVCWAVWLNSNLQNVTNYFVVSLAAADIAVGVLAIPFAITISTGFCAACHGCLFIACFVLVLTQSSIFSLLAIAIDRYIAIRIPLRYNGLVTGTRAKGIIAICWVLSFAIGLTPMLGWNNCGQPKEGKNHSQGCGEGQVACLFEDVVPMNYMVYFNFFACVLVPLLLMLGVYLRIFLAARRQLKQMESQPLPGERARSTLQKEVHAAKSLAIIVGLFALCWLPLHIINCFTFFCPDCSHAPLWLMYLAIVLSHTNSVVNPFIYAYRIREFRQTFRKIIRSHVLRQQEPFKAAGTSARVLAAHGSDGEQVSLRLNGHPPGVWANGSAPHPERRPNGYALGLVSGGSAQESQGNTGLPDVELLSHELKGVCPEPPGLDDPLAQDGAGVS

Nc1nc(-c2ccc(Cl)s2)c(-c2ccc3ncnn3c2)c2nccnc12 [Embodiment 32]
IC50 [1]: 1.8 nM

Cc1ccc(-c2nc(N)c3nccnc3c2-c2ccc3ncnn3c2)o1 [Embodiment 31]
IC50 [1]: 0.58 nM

Nc1nc(-c2ccc(F)cc2)c(-c2ccc3nccn3c2)c2nccnc12 [Embodiment 19]
IC50 [1]: 0.54 nM

Nc1nc(-c2ccc(F)cc2)c(-c2ccc3nnccc3c2)c2nccnc12 [Embodiment 13]
IC50 [1]: 9.4 nM

Nc1nc(-c2ccc(F)cc2)c(-c2ccc3cnccc3c2)c2nccnc12 [Embodiment 18]
IC50 [1]: 78.8 nM

Nc1nc(-c2ccc(F)cc2)c(-c2ccc3ncncc3c2)c2nccnc12 [Embodiment 14]
IC50 [1]: 0.76 nM

Nc1nc(-c2ccc(F)cc2)c(-c2cc(Cl)nc(C(F)(F)F)c2)c2nccnc12 [Embodiment 3]
bioavailability [2]: 69% | clearance [2]: 18.1 mL/min/kg | AUC [2]: 15.7 µM·h | half-life [2]: 83.4 min | IC50 [1]: 9.46 nM

Cc1cc(-c2c(-c3ccc(F)cc3)nc(N)c3cncnc23)cc(Cl)n1 [Embodiment 25]
IC50 [1]: 0.89 nM

Nc1nc(-c2ccc(F)cc2)c(-c2ccc3c(c2)CCCN3)c2nccnc12 [Embodiment 8]
IC50 [1]: 26.8 nM

Nc1nc(-c2ccc(F)cc2)c(-c2ccn3ncnc3c2)c2nccnc12 [Embodiment 7]
IC50 [1]: 31.4 nM

Cc1cc(-c2c(-c3ccc(Cl)s3)nc(N)c3nccnc23)cc(Cl)n1 [Embodiment 33]
IC50 [1]: 24 nM

Cn1ccc(-c2nc(N)c3nccnc3c2-c2ccc3ncnn3c2)n1 [Embodiment 29]
IC50 [1]: 3.18 nM

Cc1cc(-c2c(-c3ccc(F)cc3)nc(N)c3nccnc23)cc(Cl)n1 [Embodiment 2]
bioavailability [2]: 76.2% | clearance [2]: 17.1 mL/min/kg | AUC [2]: 20.3 µM·h | half-life [2]: 46.8 min | IC50 [1]: 1.73 nM

Nc1nc(-c2ccc(F)cc2)c(-c2ccc3nncn3c2)c2nccnc12 [Embodiment 9]
IC50 [1]: 15.6 nM

Nc1nc(-c2ccc(F)cc2)c(-c2ccc3ncnn3c2)c2ncccc12 [Embodiment 12]
bioavailability [2]: 95.4% | clearance [2]: 1.72 mL/min/kg | AUC [2]: 259 µM·h | half-life [2]: 197 min | IC50 [1]: 1.56 nM

Nc1nc(-c2ccc(F)cc2)c(-c2ccc3nccnc3c2)c2nccnc12 [Embodiment 5]
IC50 [1]: 27.8 nM

Nc1nc(-c2ccc(F)cc2)c(-c2ccc3ncnn3c2)c2nccnc12 [Embodiment 6]
clearance [2]: 5.87 mL/min/kg | AUC [2]: 24.1 µM·h | half-life [2]: 49.2 min | IC50 [1]: 1.14 nM

Nc1nc(-c2ccc(F)cc2)c(-c2ccc3ncccc3c2)c2nccnc12 [Embodiment 4]
IC50 [1]: 0.92 nM

Nc1nc(-c2ccc(F)cc2)c(-c2ccc3[nH]ncc3c2)c2nccnc12 [Embodiment 20]
IC50 [1]: 3.32 nM

Cc1cc(-c2c(-c3ccc(Cl)cc3)nc(N)c3nccnc23)cc(Cl)n1 [Embodiment 15]
IC50 [1]: 3.84 nM

Nc1nc(-c2ccc(F)cc2)c(-c2ccc3[nH]nc(Cl)c3c2)c2nccnc12 [Embodiment 22]
IC50 [1]: 38 nM

Nc1nc(-c2ccc(Cl)o2)c(-c2ccc3ncnn3c2)c2nccnc12 [Embodiment 30]
IC50 [1]: 0.35 nM

Cc1cc(-c2c(-c3ccc(F)cc3)nc(N)c3nccnc23)cc(C)n1 [Embodiment 1]
bioavailability [2]: 57.6% | clearance [2]: 16.5 mL/min/kg | AUC [2]: 16.7 µM·h | half-life [2]: 36 min | IC50 [1]: 4.77 nM

Nc1nc(-c2ccc(F)cc2)c(-c2cc(F)c3ncccc3c2)c2nccnc12 [Embodiment 17]
IC50 [1]: 0.8 nM

Cc1cc(-c2c(-c3ccc(C)o3)nc(N)c3nccnc23)cc(Cl)n1 [Embodiment 28]
IC50 [1]: 1.03 nM

Nc1nc(-c2ccc(F)cc2)c(-c2ccc3ncsc3c2)c2nccnc12 [Embodiment 23]
IC50 [1]: 0.95 nM

Cc1cc(-c2c(-c3ccc(F)cc3)nc(N)c3cccnc23)cc(Cl)n1 [Embodiment 11]
IC50 [1]: 1.79 nM

Cc1cc(-c2c(-c3ccc(F)cc3)nc(N)c3ncccc23)cc(Cl)n1 [Embodiment 24]
IC50 [1]: 5.52 nM

Nc1nc(-c2ccc(F)cc2)c(-c2cc(Cl)c3ncnn3c2)c2nccnc12 [Embodiment 34]
IC50 [1]: 1.04 nM

Nc1ncc2cc(-c3c(-c4ccc(F)cc4)nc(N)c4nccnc34)ccc2n1 [Embodiment 16]
IC50 [1]: 6.1 nM

Nc1nc(-c2ccccc2)c(-c2ccc3ncnn3c2)c2ncccc12 [Embodiment 27]
IC50 [1]: 0.56 nM

Nc1nc(-c2ccc(F)cc2)c(-c2cc(Cl)c3[nH]ncc3c2)c2nccnc12 [Embodiment 21]
IC50 [1]: 0.82 nM

Cc1cc(-c2c(-c3ccc(F)cc3)nc(N)c3nccnc23)cc(C(F)(F)F)n1 [Embodiment 10]
IC50 [1]: 9.2 nM

Nc1nc(-c2ccc(F)cc2)c(-c2cc(Cl)c3ncccc3c2)c2nccnc12 [Embodiment 26]
IC50 [1]: 0.92 nM

B1: CS1003: full-length, fully humanized immunoglobulin G4 (IgG4) monoclonal antibody for PD-1 (antibody, chains of the INN, looked up, V domains shown)
VH: QVQLVQSGAEVKKPGSSVKVSCKASGFTFTTYYISWVRQAPGQGLEYLGYINMGSGGTNYNEKFKGRVTITADKSTSTAYMELSSLRSEDTAVYYCAIIGYFDYWGQGTMVTVSS
VL: DVVMTQSPLSLPVTLGQPASISCRSSQSLLDSDGGTYLYWFQQRPGQSPRRLIYLVSTLGSGVPDRFSGSGSGTDFTLKISRVEAEDVGVYYCMQLTHWPYTFGQGTKLEIK
tumor volume ([3]; 20th day after starting administration): 487.34+109.07 mm^3 | tumor inhibition rate ([3]; 20th day, no significant difference vs control): 42.47%
